From paper PMC4245160 (ACS Chemical Biology, 2014)

Target: T1, mouse OR-I7 (Mus musculus, UniProt Q9QWU6)
T1 sequence (Q9QWU6 1-327): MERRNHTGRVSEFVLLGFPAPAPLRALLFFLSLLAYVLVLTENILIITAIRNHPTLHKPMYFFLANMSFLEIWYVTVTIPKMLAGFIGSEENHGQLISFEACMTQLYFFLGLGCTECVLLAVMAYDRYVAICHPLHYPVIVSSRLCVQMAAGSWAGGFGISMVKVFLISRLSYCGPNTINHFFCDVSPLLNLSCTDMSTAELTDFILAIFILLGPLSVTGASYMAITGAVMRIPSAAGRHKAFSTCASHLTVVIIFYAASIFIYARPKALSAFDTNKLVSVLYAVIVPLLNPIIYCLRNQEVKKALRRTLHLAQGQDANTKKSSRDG
Test: GloSensor cAMP assay in Hana3A cells expressing recombinant receptor
Assay type: cell-based

EC50 [µM] | SMILES
~10 | CCCCCCC(F)(F)C=O [compound 2, 2,2-difluorooctanal]
~1.5 | CCCCCCCC=O [compound 1, octanal]
